Entries after “also recorded” stand apart in the source; their conditions may differ.
Columns and labels:
[1] = cited from earlier work
[2] = tested on: mouse model of TEN; assay: Smac mimetic TEN mouse model
[3] = tested on: DRESS; conditions: earlier report; cited from earlier work
[4] = tested on: primary keratinocytes; assay: Live-cell imaging co-culture assay of patient-derived keratinocytes with matched PBMCs
Text: Concurrently, patient-matched PBMCs were isolated and activated using CD3/28. After five days, the keratinocytes were fluorescently labeled and co-cultured with activated or resting PBMCs. A fluorescent DNA-binding dye was introduced to identify cells with compromised membrane integrity, in order to visualize, track and quantify the cytotoxic action of activated PBMCs towards keratinocytes using live-cell imaging.
PBMCs were isolated using Ficol according to standard protocol. Cells were frozen in liquid nitrogen until further usage.
Patient PBMCs (200'000 / well / 200 µl) were stimulated in U-shape 96-well plates in the presence or absence of CD3/28 (Gibco Dynabeads, #11161D) at a ratio of 1:1, in X-VIVO 15 (Lonza, #881026) for 5 days at 37 °C / 5% CO2. On day 4 of PBMC stimulation, hair-follicle derived keratinocytes from the same patient were plated on Collagen-I coated 96-well plates at a density of 5'000 - 10000 / well (depending on the proliferation rate, patient specific). On day 5 of PBMC stimulation, keratinocytes were fluorescently labeled (Celltracker Red; Invitrogen #C34552) according to the manufacturer's recommendation. Activated or non-activated ("resting") PBMCs were then added to the keratinocytes at a ratio of 1:1, after magnetic removal of CD3/28 beads where necessary. Tofacitinib (CST, #14703) or control (DMSO) was added in the indicated concentration as well as Celltox Green (Promega, G8731, 1:8000 final dilution) to reach a final volume of 200 µl per well. Every 2 hours images were acquired using a live cell analysis system (Incucyte Sx3, Sartorius) for 72 hours at 37 °C / 5% CO2. Quantification of dead keratinocytes (Celltox Green+ / Celltracker Red+) was performed using the proprietary analysis software (Incucyte, Sartorius).

## C[C@@H]1CCN(C(=O)CC#N)C[C@@H]1N(C)c1ncnc2[nH]ccc12 [Tofacitinib]
[1]
  peak plasma concentrations achieved (time after administration): 30 to 60 min
[2]; oral administration
  clinical and histological disease severity: ameliorated clinical and histological disease severity
[2]; oral gavage twice daily, Tofacitinib 30 mg/kg or Baricitinib 10 mg/kg, day 1 and 3 after s.c. smac mimetic injection
  macroscopic disease severity (clinical assessment score: Nikolsky sign, edema, rubor): markedly reduced macroscopic disease severity
[3]
  therapeutic intervention in DRESS: successful
[4]; Tofacitinib in combination with resting (non-activated) PBMCs
  cell death: no indications of increased cell death
[4]; co-culture of primary keratinocytes with CD3/28 activated PBMCs from the same TEN patient, ratio 1:1, Tofacitinib 50 or 5 (nmol/nM), imaging every 2h for 72 hours, Celltox Green positive keratinocytes
  keratinocyte cytotoxicity: reduced keratinocyte-directed cytotoxicity; also recorded: able to dampen the keratinocyte mediated cytotoxicity; also recorded: ameliorates T-cell mediated keratinocyte cytotoxicity; also recorded: dose-dependent inhibition of keratinocyte cytotoxicity
[4]; keratinocytes exposed to Tofacitinib alone
  keratinocyte cell death: did not induce keratinocyte cell death

From patent EP4506005A1, “JAK-INHIBITOR FOR THE TREATMENT OF TEN, SJS AND SJS/TEN OVERLAP” (Max-Planck-Gesellschaft zur Förderung der Wissenschaften …, priority 2023, dated 2025)
